Here are results for 89 compounds from PubChem BioAssay AID2305 (GlaxoSmithKline (GSK), 2010).

This test relates to P. falciparum 3D7 growth, pLDH absorbance. Briefly: P. falciparum 3D7 growth inhibition, dose response, strain 3D7 (AID 2305).

The term IC50 denotes the concentration needed to halve the response being measured. `CC(C)[C@H](NC(=O)c1ccc(O)c(-c2cccc(C(F)(F)F)c2)c1)C(=O)NCCN1CCCCC1` gave an IC50 of 840 nM.
Then `Cc1nc2nc(N)nc(N)c2c(C)c1Cc1ccccc1`, with 250 nM; and `COc1cccc2c(NN=Cc3ccc([N+](=O)[O-])cc3)ccnc12`, with 890 nM; and `CN1CCCN(c2ccnc3cc4c(cc23)N(C(=O)c2ccc(Cl)c(Cl)c2)CC4)CC1`, with 870 nM.
In turn, `OC1CCCN(Cc2ccc(-c3ccc(-c4nc5ccc(F)cc5[nH]4)s3)cc2)C1` (centres undefined) showed an IC50 of 850 nM.
`Cc1ccc(CNC(=O)[C@H](Cc2ccccc2)Nc2cc(C)nc(NCCc3ccc(F)cc3)n2)cc1` came in with an IC50 of 980 nM.
Then `COc1cc2nc(N3CCC(C(N)=O)CC3)nc(NCc3ccccc3)c2cc1OC`, with 890 nM.
Then `COc1ccc(NC(=O)Nc2ccc(-c3ccccc3)cc2)cc1Cn1cnc(N2CCCNCC2)cc1=O`, with 760 nM; and `CC(N)(Cc1ccc(O)cc1)c1nn[nH]n1` (centres undefined), with 970 nM.
With `CS(=O)(=O)N1CC2(CCN(CCC(NC(=O)/C=C/c3ccccc3)c3ccc(Cl)c(Cl)c3)CC2)c2ccccc21` (centres undefined) the figure was 780 nM.
`Cc1ccc(C(=O)Nc2ccc(C)c(OC3CCN(CCC(C)C)C3)c2)cc1` (centres undefined) showed a half-inhibitory concentration (IC50) of 790 nM.
Then `CC(CN1CCN(CC(c2ccc(F)cc2)N2CCN(C)CC2)CC1)C(=O)c1ccc(O)cc1` (centres undefined), with 670 nM; and `Cc1cc(OCCCN2CCC(NS(=O)(=O)c3ccc(Cl)c(Cl)c3)C2)c2ccccc2n1` (centres undefined), with 1050 nM; and `CC(C)CSc1cc(C(=O)Nc2cc(Cl)ccc2O)ccn1`, with 670 nM.
Compound `CCCc1cc(NC2CCN(C)CC2)nc(Nc2ccc(F)cc2)n1` returned a 50% inhibitory concentration (IC50) of 800 nM.
With `Cc1[nH]c(C)c(-c2ccc(Oc3ccc(F)cc3)cc2)c(=O)c1Br` the figure was 50 nM.
Then `Cc1nc(-c2nc(NCc3ccc4c(c3)OCO4)ncc2-c2ccsc2)sc1C`, with 100 nM; and `O=C(C1CCCC1)N1CCOC(CCN2CCC(c3ccccc3)CC2)(c2ccc(Cl)c(Cl)c2)C1` (centres undefined), with 940 nM; and `CC(C)C(=O)NC(Nc1ccc([N+](=O)[O-])cc1)C(Cl)(Cl)Cl` (centres undefined), with 840 nM.
With `c1ccc(CCNCc2ccc(-c3cccc(-c4nc5ccccc5[nH]4)c3)cc2)nc1` the figure was 620 nM; with `COC(=O)c1ccc(CC(C)NCC(O)c2cc(Cl)c(N)c(Cl)c2)cc1` (centres undefined), 880 nM.
With `O=S(=O)(NCCN1CCCC1)c1ccc(-c2cccc(CNC3Cc4ccccc4C3)c2)cc1`, the concentration for half-maximal inhibition (IC50) came to 620 nM.
Then `S=C(NCCc1ccc(Cl)cc1)NC1CCC(CN2CCC(c3c[nH]c4ccccc34)CC2)CC1` (centres undefined), with 700 nM; and `O=C(CC1SC(N2N=C(c3cccs3)CC2c2ccccc2)=NC1=O)Nc1ccccc1F` (centres undefined), with 1090 nM; and `Cc1ccc2nc(C)n(C3CCN(C(=O)Cc4ccc(F)c(F)c4)CC3)c2c1`, with 470 nM.
As for `O=C(Nc1ccc(Cl)cc1)NC1CCN(CCCCCNC(=O)[C@@H]2C[C@H]2c2ccc(Cl)c(Cl)c2)CC1`, the IC50 was found to be 580 nM.
With `Clc1ccc(OCc2ccccc2)c(-c2nc(-c3nc4ncc(Br)cc4[nH]3)cs2)c1` the figure was 210 nM.
`CC(Cc1ccc(CN(CC(N)=O)Cc2ccc(CC(C)NCCc3cccc(Cl)c3)cc2)cc1)NCCc1cccc(Cl)c1` (centres undefined) came in with a concentration for half-maximal inhibition (IC50) of 670 nM.
With `Cc1ccc(N2C(N)=NC(N)=NC2(C)C)cc1Cl` the figure was 10 nM.
Then `Nc1cccc(CNCc2ccc(-c3cccc(-c4nc5ccc(F)cc5[nH]4)c3)cc2)c1`, with 210 nM.
With `CCOC(=O)N1CCN(C(=O)Nc2ccc(Cl)cc2)CC1` the figure was 1520 nM; with `CN1CCN(c2cccc(NC(=O)c3ccc(-c4ccc(C#N)cc4)cc3)c2)CC1`, 1260 nM.
`CN1CCN(c2ccnc3ccc(NC(=O)Nc4cccc5c(Br)cccc45)cc23)CC1` yielded a concentration for half-maximal inhibition (IC50) of 150 nM.
With `COc1ccc2nccc([C@@H](O)CN3CCC(NC(=O)C(c4cc5ccccc5s4)N4CC(C)OC(C)C4)CC3)c2c1` (some centres undefined) the figure was 980 nM; with `COc1ccc2ncc(F)c(CCN3CCC(NCc4cnc5c(c4)NC(=O)CS5)CC3)c2c1`, 570 nM.
With `COc1cccc(NC(=O)Nc2ccc(Nc3nc(C)cc(N(C)C)n3)cc2)c1` the figure was 170 nM; with `Cc1ccc(O)c(C(=O)c2cc(C(=O)Nc3ccccc3C)c(=O)n(-c3ccccc3C)c2)c1`, 780 nM.
`O=c1cc(NCCCNCc2ccc(C(F)(F)F)c(F)c2)[nH]c2ccccc12` gave a concentration for half-maximal inhibition (IC50) of 1190 nM.
With `O=C(Nc1nc2cc(S(=O)(=O)NCc3ccc(Cl)c(Cl)c3)ccc2n1CCCN1CCCC1)c1ccc(Cl)cc1` the figure was 940 nM.
`Clc1cccc(CNc2nc(NCCc3cnc[nH]3)nc(NC3CCCCC3)n2)c1`: the IC50 turned out to be 790 nM.
With `CCCCCCN1CCN(Cc2cccc(NC(=O)c3ccc(Cl)c(Cl)c3)c2)CC1`, the IC50 stood at 610 nM.
Then `CC(C)c1ccc(NC(=S)NN=Cc2ccccn2)cc1`, with 720 nM; and `O=C(Nc1cccc(-c2nc3ccccc3[nH]2)c1)c1ccc(-c2cccc([N+](=O)[O-])c2)o1`, with 150 nM.
Then `Cc1ccc2nc(-c3ccc(C=CC(=O)NCc4ccc(Cl)c(Cl)c4)cc3)[nH]c2c1`, with 900 nM.
Then `COc1ccccc1C1CN(CCNC(=O)c2ncc(C)[nH]2)Cc2ccccc2O1` (centres undefined), with 800 nM; and `O=C1CCCN1CCCNCc1ccc(-c2cccc(-c3nc4ccc(C(F)(F)F)cc4[nH]3)c2)cc1`, with 190 nM; and `CCN(CC)CCCN(C(=O)Nc1c(Cl)cncc1Cl)c1nc(-c2ccc(F)cc2)cs1`, with 240 nM.
`COc1ccc2nccc(NC(=O)OC3CCC(NCc4ccc5c(n4)NC(=O)CS5)CC3)c2c1` (centres undefined): the half-inhibitory concentration (IC50) was found to be 920 nM.
With `CC(C)(C)c1ccc(CNC(=O)c2cc(CNC3CCNCC3)ccc2O)cc1` the figure was 710 nM; with `Cc1ccc(S(=O)(=O)NC2=NC(C)(C)N(OCc3ccc(Cl)c(Cl)c3)C(N)=N2)cc1`, 1140 nM; with `CCCN1CCN(Cc2ccc(-c3ccc(-c4nc5ccccc5[nH]4)s3)cc2)CC1`, 610 nM.
With `Oc1ccc(CCCNc2nc(NCc3ccccc3-c3ccccc3)nc(NC3CCNCC3)n2)cc1` the figure was 860 nM.
Then `COc1ccc2nccc([C@@H](O)CN3CCC(NCc4ccc5c(c4)sc(=O)n5C)CC3)c2c1`, with 260 nM; and `COc1ccc(Nc2ncc(OC)c(Nc3ccccc3C(N)=O)n2)cc1N1CCN(C)CC1`, with 740 nM; and `Cc1cccc(CNc2nc(C)cc(N[C@@H](CC(C)C)C(=O)NCc3cccc(F)c3)n2)c1`, with 1180 nM.
Take `CC(=O)Nc1sc(C)c(C)c1CN1CCc2ccccc2C1`: the IC50 worked out at 620 nM.
With `Fc1cc(Cl)ccc1Nc1ccnc2cc(-c3ccc(CN4CCSCC4)o3)ccc12` the figure was 780 nM; with `NC(=O)C1CCN(Cc2cccc(-c3cccc(-c4nc5ccc(F)cc5[nH]4)c3)c2)CC1`, 850 nM.
Then `Cc1noc(-c2ccc(N3CCC(C(=O)N4CCN(C(C)C)CC4)CC3)cc2)n1`, with 1070 nM.
With `O=C(Nc1ccc(-c2csc(-c3nc4ccccc4[nH]3)c2)cc1)Nc1ccsc1` the figure was 550 nM.
The compound `Nc1nccc2ccc(-c3cccc4ncccc34)cc12` came in with an IC50 of 50 nM.
Compound `COc1cccc2c(NN=Cc3cccc([N+](=O)[O-])c3)ccnc12` had an IC50 of 750 nM.
Turning to `COc1ccc(OC)c(NC(=O)CSc2nc(-c3ccccc3Cl)ns2)c1`, the IC50 came to 830 nM.
With `O=c1c(Br)ccccc1Br` the figure was 790 nM; with `COc1cc2c(cc1OCCN1CCC(N3CCCC3)CC1)N(C(=O)/C=C/c1ccccc1Cl)CC2`, 660 nM; with `CN1CCCN(c2ccnc3cc4c(cc23)N(C(=O)c2ccc(C(F)(F)F)cc2)CC4)CC1`, 790 nM.
With `COc1ccc2nc(-c3cc(-c4ccc(NC(=O)C(C)C)cc4)cnc3N)[nH]c2c1` the figure was 560 nM; with `Cc1cccc2[nH]c(-c3cccc(-c4ccc(NC(=O)NC(C)C)cc4)c3)nc12`, 750 nM; with `CCCCCCn1c(Sc2ccc(C#N)c([N+](=O)[O-])c2)nnc1-c1ccccc1`, 770 nM.
Then `Cc1cc(N[C@@H](CC(C)C)C(=O)NCc2cccs2)nc(NCCc2ccc(F)cc2)n1`, with 800 nM; and `COc1ccc(CNc2ncc(-c3ccsc3)c(-c3nccs3)n2)cc1OC`, with 90 nM; and `CCNC(=O)Nc1cccc(-c2cccc(-c3nc4ccc(C(F)(F)F)cc4[nH]3)c2)c1`, with 680 nM.
In the case of `CC(C)CCN(Cc1cncn1Cc1cccc(Cl)c1)C(=O)c1cncc(-c2ccccc2)c1`, the concentration for half-maximal inhibition (IC50) stood at 760 nM.
With `COc1cccc(C=NNc2cc(C)nc3c(OC)cccc23)c1` the figure was 580 nM; with `CS(=O)(=O)c1ccc(CCNCc2ccc(-c3ccc(CN(C(=O)c4ccc(Cl)nc4)C4CCN(Cc5ccccc5)CC4)cc3)nc2)cc1`, 800 nM; with `COc1cc2nc(N3CCN(C(=O)c4ccco4)CC3)nc(NCc3ccccc3)c2cc1OC`, 170 nM.
Then `Cc1nc(-c2ccccc2)nc(N2CCN(C(=O)c3ccco3)CC2)c1Cc1ccccc1F`, with 930 nM; and `COc1ccc(CCN2CC[C@H](Nc3nc(-c4ccc(F)c(F)c4)nc4ccccc34)C2)cc1S(N)(=O)=O`, with 790 nM.
`COc1ccc2nccc([C@@H](O)CN3CCC(NCc4nc5c(F)cc(F)cc5[nH]4)CC3)c2c1` registered an IC50 of 570 nM.
Then `CCC(C(=O)Nc1cc(=O)[nH]c2nc(-c3ccco3)nn12)c1ccccc1` (centres undefined), with 840 nM; and `N#CC(c1ccc(Br)cc1)c1ccc2c(C(F)(F)F)cc(C(F)(F)F)nc2n1` (centres undefined), with 440 nM; and `Nc1nc(N)c2c(ccc3c2ccn3C2CCCCC2)n1`, with 120 nM.
With `CC[C@H]1CN2CC[C@H]1C[C@H]2[C@H](O)c1cc(-c2ccc3ccccc3c2)nc2ccc(OC)cc12` the figure was 100 nM.
With `Oc1ccc(CCCNc2nc(NCc3cccc4ccccc34)nc(N3CCCNCC3)n2)cc1` the figure was 990 nM; with `O=C(/C=C/c1ccc(Cl)c(Cl)c1)N1CCC(CCCN2CCC(c3c[nH]c4ccc(O)cc34)CC2)CC1`, 690 nM.
`Nc1c(Cl)cc(C(O)CNCCCCCOCCc2ccccc2)cc1C(F)(F)F` (centres undefined): the IC50 came out at 980 nM.
Then `Nc1nccc2ccc(-c3ccc(OCc4ccccc4)cc3)cc12`, with 220 nM.
With `CC[C@H](C)CNC(=O)c1cncc(-c2ccc(CNC3CCCC3)cc2)c1` the figure was 1120 nM.
With `Cc1nc(N)nc(N)c1CCCOc1cccc(Cl)c1` the figure was 480 nM.
